Experimental data taken from ChEMBL document CHEMBL1128999, “Synthesis and evaluation of 2-aryl-4H-3,1-benzoxazin-4-ones as C1r serine protease inhibitors” (Bioorg Med Chem Lett, 1996).

The molecules below were run against T1, Complement C1r subcomponent (Homo sapiens, UniProt P00736) (assay: (§1) Inhibitory activity against C1r serine protease). Settings: not given.
T1 sequence (P00736 whole entry): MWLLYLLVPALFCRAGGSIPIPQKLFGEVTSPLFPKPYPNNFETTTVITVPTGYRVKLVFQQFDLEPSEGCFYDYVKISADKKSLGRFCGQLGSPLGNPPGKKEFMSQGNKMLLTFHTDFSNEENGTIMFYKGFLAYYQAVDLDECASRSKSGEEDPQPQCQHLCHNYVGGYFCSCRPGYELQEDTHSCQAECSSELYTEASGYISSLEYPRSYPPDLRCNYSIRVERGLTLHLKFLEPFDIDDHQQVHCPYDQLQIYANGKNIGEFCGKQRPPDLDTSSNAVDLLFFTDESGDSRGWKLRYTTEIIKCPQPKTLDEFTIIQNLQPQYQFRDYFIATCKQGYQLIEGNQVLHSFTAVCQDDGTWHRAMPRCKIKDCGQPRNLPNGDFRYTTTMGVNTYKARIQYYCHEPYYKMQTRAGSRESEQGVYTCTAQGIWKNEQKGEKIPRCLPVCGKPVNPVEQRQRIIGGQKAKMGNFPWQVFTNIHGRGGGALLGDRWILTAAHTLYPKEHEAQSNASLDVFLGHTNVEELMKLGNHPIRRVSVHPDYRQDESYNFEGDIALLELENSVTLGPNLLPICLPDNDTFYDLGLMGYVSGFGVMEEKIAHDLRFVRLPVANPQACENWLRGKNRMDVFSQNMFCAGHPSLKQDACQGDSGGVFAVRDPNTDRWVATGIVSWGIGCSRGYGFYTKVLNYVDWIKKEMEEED

Row | SMILES | IC50 [µM]
1 | O=c1oc(-c2ccccc2I)nc2cc([N+](=O)[O-])ccc12 | 22
2 | O=c1oc(-c2ccccc2I)nc2cc3ccccc3cc12 | > 62.5
3 | O=c1oc(-c2ccccc2C(F)(F)F)nc2ccccc12 | 35.4
4 | O=c1oc(-c2ccccc2I)nc2ccc(Cl)cc12 | 7.8
5 | O=C(O)c1ccccc1-c1nc2ccccc2c(=O)o1 | > 62.5
6 | COc1ccc2c(=O)oc(-c3ccccc3I)nc2c1 | > 62.5
7 | O=c1oc(-c2ccccc2Br)nc2ccccc12 | 32
8 | O=c1oc(-c2ccccc2I)nc2cc(Cl)c(Cl)cc12 | > 62.5
9 | O=c1oc(-c2ccccc2I)nc2ccccc12 | 16.7
10 | COc1cc2nc(-c3ccccc3I)oc(=O)c2cc1OC | > 62.5
11 | O=c1oc(-c2ccccc2[N+](=O)[O-])nc2ccccc12 | 15
12 | O=c1oc(Cc2ccccc2I)nc2ccccc12 | 26
13 | COc1ccc2nc(-c3ccccc3I)oc(=O)c2c1 | > 62.5
14 | O=c1oc(-c2ccccc2I)nc2cccc(Cl)c12 | 13.5

These molecules were tested against Plasminogen (Homo sapiens, UniProt P00747) (assay: Compound was evaluated for inhibitory activity against plasmin.). Settings: not given.
Plasminogen, sequence (P00747 97-580 limits assumed): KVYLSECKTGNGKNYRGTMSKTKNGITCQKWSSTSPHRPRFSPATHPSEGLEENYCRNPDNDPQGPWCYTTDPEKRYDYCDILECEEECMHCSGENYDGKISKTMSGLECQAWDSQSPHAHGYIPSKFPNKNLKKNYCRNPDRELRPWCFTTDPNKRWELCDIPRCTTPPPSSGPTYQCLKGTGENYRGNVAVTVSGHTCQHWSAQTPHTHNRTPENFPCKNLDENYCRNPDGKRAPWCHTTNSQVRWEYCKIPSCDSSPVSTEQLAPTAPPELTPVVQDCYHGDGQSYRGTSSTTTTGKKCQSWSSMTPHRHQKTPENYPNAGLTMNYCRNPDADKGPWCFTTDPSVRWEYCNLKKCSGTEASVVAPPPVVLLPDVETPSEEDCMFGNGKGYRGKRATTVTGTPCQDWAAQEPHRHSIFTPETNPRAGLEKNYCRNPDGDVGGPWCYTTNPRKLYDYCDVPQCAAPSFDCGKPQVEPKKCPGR
Plasminogen, sequence (P00747 581-810 limits assumed): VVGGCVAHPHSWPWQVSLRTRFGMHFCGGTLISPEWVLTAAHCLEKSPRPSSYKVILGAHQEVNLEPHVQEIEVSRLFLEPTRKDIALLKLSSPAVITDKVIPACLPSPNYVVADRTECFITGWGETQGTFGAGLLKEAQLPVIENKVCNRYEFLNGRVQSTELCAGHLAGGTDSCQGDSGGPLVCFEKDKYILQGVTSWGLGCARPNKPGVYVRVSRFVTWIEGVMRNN

Row | SMILES | IC50 [µM]
15 | O=c1oc(-c2ccccc2I)nc2ccccc12 | 6.68

The molecules below were run against T2, Complement C1r subcomponent (Homo sapiens) (UniProt P00736). Settings: at 10 µM.
T2 sequence (whole entry): T1 sequence (P00736 whole entry)

Row | SMILES | inhibition [%]
16 | O=c1oc(-c2ccccc2I)nc2cc([N+](=O)[O-])ccc12 | 0
17 | O=C(O)c1ccccc1-c1nc2ccccc2c(=O)o1 | 25

What follows are molecules tested against T1, Complement C1r subcomponent (assay: Inhibition of C1r serine protease). Settings: not given.

Row | SMILES | IC50 [µM]
18 | O=c1oc(-c2ccccc2I)nc2cc3ccccc3cc12 | 0.7
19 | O=c1oc(-c2ccccc2C(F)(F)F)nc2ccccc12 | 4.2
20 | O=c1oc(-c2ccccc2I)nc2ccc(Cl)cc12 | 3
21 | O=c1oc(-c2ccccc2Br)nc2ccccc12 | 9.5
22 | O=c1oc(-c2ccccc2I)nc2cc(Cl)c(Cl)cc12 | 1.7
23 | O=c1oc(-c2ccccc2[N+](=O)[O-])nc2ccccc12 | 36.3
24 | O=c1oc(Cc2ccccc2I)nc2ccccc12 | 6
25 | COc1ccc2nc(-c3ccccc3I)oc(=O)c2c1 | 5
26 | N=C(N)c1ccc2cc(OC(=O)c3ccc(N=C(N)N)cc3)ccc2c1 [NAFAMOSTAT] | 1
27 | O=c1oc(-c2ccccc2I)nc2cccc(Cl)c12 | 3

What follows are molecules tested against Kallikrein-1 (Homo sapiens, UniProt P06870) (assay: Compound was evaluated for inhibitory activity against Kallikrein.). Settings: not given.
Kallikrein-1, sequence (P06870 whole entry): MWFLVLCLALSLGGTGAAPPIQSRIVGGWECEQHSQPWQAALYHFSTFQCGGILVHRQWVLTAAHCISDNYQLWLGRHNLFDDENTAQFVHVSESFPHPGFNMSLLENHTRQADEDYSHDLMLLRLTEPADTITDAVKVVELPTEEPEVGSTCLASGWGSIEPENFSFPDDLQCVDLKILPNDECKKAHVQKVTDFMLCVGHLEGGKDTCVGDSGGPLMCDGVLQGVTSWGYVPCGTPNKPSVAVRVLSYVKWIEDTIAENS

Row | SMILES | IC50 [µM]
28 | O=c1oc(-c2ccccc2I)nc2ccccc12 | 9.89
29 | N=C(N)c1ccc2cc(OC(=O)c3ccc(N=C(N)N)cc3)ccc2c1 [NAFAMOSTAT] | 0.65

These molecules were tested against T1, Complement C1r subcomponent (assay: Compound was evaluated for inhibitory activity against C1r serine protease in assay 2 at t=60 min.). Settings: not given.

Row | SMILES | IC50 [µM]
30 | O=c1oc(-c2ccccc2I)nc2ccccc12 | 50

The molecules below were run against T1, Complement C1r subcomponent (assay: Compound was evaluated for inhibitory activity against C1r serine protease.). Settings: not given.

Row | SMILES | IC50 [nM]
31 | O=c1oc(-c2ccccc2I)nc2ccccc12 | 1370
32 | N=C(N)c1ccc2cc(OC(=O)c3ccc(N=C(N)N)cc3)ccc2c1 [NAFAMOSTAT] | 1040

What follows are molecules tested against T1, Complement C1r subcomponent (assay: Compound was evaluated for inhibitory activity against C1r serine protease in assay 1). Settings: not given.

Row | SMILES | IC50 [nM]
33 | O=c1oc(-c2ccccc2I)nc2ccccc12 | 1400

These molecules were tested against T1, Complement C1r subcomponent (assay: as §1). Settings: not given.

Row | SMILES | IC50 [µM]
34 | O=c1oc(-c2ccccc2I)nc2cc([N+](=O)[O-])ccc12 | > 62.5
35 | O=c1oc(-c2ccccc2I)nc2cc3ccccc3cc12 | > 62.5
36 | O=c1oc(-c2ccccc2C(F)(F)F)nc2ccccc12 | > 62.5
37 | O=c1oc(-c2ccccc2I)nc2ccc(Cl)cc12 | 27.3
38 | O=C(O)c1ccccc1-c1nc2ccccc2c(=O)o1 | > 62.5
39 | COc1ccc2c(=O)oc(-c3ccccc3I)nc2c1 | > 62.5
40 | O=c1oc(-c2ccccc2Br)nc2ccccc12 | 46
41 | O=c1oc(-c2ccccc2I)nc2cc(Cl)c(Cl)cc12 | > 62.5
42 | COc1cc2nc(-c3ccccc3I)oc(=O)c2cc1OC | > 62.5
43 | O=c1oc(-c2ccccc2[N+](=O)[O-])nc2ccccc12 | > 62.5
44 | O=c1oc(Cc2ccccc2I)nc2ccccc12 | 40
45 | COc1ccc2nc(-c3ccccc3I)oc(=O)c2c1 | > 62.5
46 | N=C(N)c1ccc2cc(OC(=O)c3ccc(N=C(N)N)cc3)ccc2c1 [NAFAMOSTAT] | 12
47 | O=c1oc(-c2ccccc2I)nc2cccc(Cl)c12 | 57

Each molecule was assayed against Serine protease 1 (Homo sapiens, UniProt P07477) (assay: Compound was evaluated for inhibitory activity against Trypsin.). Settings: not given.
Serine protease 1, sequence (P07477 whole entry): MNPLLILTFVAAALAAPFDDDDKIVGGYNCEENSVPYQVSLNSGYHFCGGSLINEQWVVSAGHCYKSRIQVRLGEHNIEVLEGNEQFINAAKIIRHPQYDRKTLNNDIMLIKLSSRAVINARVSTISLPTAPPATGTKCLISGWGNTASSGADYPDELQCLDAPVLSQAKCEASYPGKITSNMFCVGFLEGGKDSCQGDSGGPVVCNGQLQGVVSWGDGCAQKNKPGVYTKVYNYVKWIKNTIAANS

Row | SMILES | IC50 [µM]
48 | O=c1oc(-c2ccccc2I)nc2ccccc12 | 15.3

Each molecule was assayed against Prothrombin (Homo sapiens, UniProt P00734) (assay: Compound was evaluated for inhibitory activity against Thrombin.). Settings: not given.

Row | SMILES | IC50 [nM]
49 | O=c1oc(-c2ccccc2I)nc2ccccc12 | 510
50 | N=C(N)c1ccc2cc(OC(=O)c3ccc(N=C(N)N)cc3)ccc2c1 [NAFAMOSTAT] | 290

Each molecule was assayed against T2, Complement C1r subcomponent (Homo sapiens) (assay: Compound was evaluated for percentage inhibitory activity against C1r serine protease in assay 1 at a concentration of 10 uM). Settings: not given.

Row | SMILES | inhibition [%]
51 | COc1ccc2c(=O)oc(-c3ccccc3I)nc2c1 | 27
52 | COc1cc2nc(-c3ccccc3I)oc(=O)c2cc1OC | 18

The molecules below were run against T3, Complement C1s subcomponent (Homo sapiens, UniProt P09871) (assay: Compound was evaluated for inhibitory activity against C1s serine protease.). Settings: not given.
T3 sequence (P09871 whole entry): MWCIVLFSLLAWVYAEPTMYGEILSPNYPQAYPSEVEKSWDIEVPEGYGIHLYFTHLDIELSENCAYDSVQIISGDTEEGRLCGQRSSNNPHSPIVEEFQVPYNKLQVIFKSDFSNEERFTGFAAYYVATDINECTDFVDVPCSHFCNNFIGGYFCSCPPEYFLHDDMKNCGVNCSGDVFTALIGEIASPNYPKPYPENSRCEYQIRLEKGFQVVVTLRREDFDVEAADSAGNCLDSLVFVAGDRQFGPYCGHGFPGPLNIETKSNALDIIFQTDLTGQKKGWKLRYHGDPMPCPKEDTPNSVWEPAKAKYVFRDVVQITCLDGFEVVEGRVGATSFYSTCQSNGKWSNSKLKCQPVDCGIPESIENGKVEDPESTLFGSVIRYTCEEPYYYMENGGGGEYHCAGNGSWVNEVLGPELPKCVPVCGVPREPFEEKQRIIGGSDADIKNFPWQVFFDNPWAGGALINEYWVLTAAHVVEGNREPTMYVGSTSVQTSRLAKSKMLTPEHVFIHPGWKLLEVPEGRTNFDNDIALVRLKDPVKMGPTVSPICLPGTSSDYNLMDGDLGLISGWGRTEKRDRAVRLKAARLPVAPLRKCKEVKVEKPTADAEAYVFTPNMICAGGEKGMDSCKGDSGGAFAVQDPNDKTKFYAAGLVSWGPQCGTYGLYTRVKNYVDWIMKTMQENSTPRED

Row | SMILES | IC50 [nM]
53 | O=c1oc(-c2ccccc2I)nc2ccccc12 | 1250
54 | N=C(N)c1ccc2cc(OC(=O)c3ccc(N=C(N)N)cc3)ccc2c1 [NAFAMOSTAT] | 140
